# Test results reported in US10131664B2 (Celgene Quanticel Research, Inc., priority 2013, dated 2018).
# Assays:
# full-length human LSD1 = full-length human LSD1 (Homo sapiens (Human), UniProt O60341); test: In vitro enzyme inhibition assay LSD-1 (TR-FRET); assay type: biochemical; conditions: TR-FRET, 0.1 nM LSD1, 50 nM H3K4me1-biotin peptide, 2 μM FAD, pH7.3; read-out: LSD1 IC50
# Procedure: This assay determines the ability of a test compound to inhibit LSD1 demethylase activity.
# The enzymatic assay of LSD1 activity is based on Time Resolved-Fluorescence Resonance Energy Transfer (TR-FRET) detection.
# The ability of the compounds disclosed herein to inhibit LSD1 activity was quantified and the respective IC50 value was determined. Table 5 provides the IC50 values of various substituted heterocyclic compounds disclosed herein.
# THP-1 (AML) cells = test: LSD1 CD11b cellular assay (flow cytometry); assay type: cell-based; conditions: Homo sapiens, 96 h; CD11b expression in THP-1 (AML) cells, flow cytometry, 4 days incubation; read-out: Cellular IC50
# Procedure, shortened: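 THP-1 AML cells treated with serially diluted compound (0.2% DMSO final) for 4 days at 37 °C, 5% CO2. CD11b expression measured by flow cytometry with DAPI staining; IC50 derived from percent CD11b-positive cells versus inhibitor concentration.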
compound,measurement,setting,value
"N#Cc1ccc(-c2nc(N3CCC(N)CC3)ncc2-c2cnn(C3CCOC3)c2)cc1 (stereo not shown) [Example 71, 4-[2-(4-aminopiperidin-1-yl)-5-[1-(oxolan-3-yl)pyrazol-4-yl]pyrimidin-4-yl]benzonitrile]",IC50,full-length human LSD1,< 100 nM
same,IC50,THP-1 (AML) cells,100 to 1000 nM
"Cn1cc2ccc(-c3cnc(N4CCC(N)CC4)nc3-c3ccc(C#N)cc3)cc2n1 [Example 129, 4-[2-(4-aminopiperidin-1-yl)-5-(2-methylindazol-6-yl)pyrimidin-4-yl]benzonitrile]",IC50,full-length human LSD1,< 100 nM
same,IC50,THP-1 (AML) cells,< 100 nM
"CNc1nc(N2CC[C@H](N)[C@H](F)C2)nc(-c2ccc(C#N)cc2)c1-c1ccc2nn(C)cc2c1 [Example 178, 4-{2-[(3R,4S)-4-amino-3-fluoropiperidin-1-yl]-5-(2-methyl-2H-indazol-5-yl)-6-(methylamino)pyrimidin-4-yl}benzonitrile]",IC50,full-length human LSD1,< 100 nM
same,IC50,THP-1 (AML) cells,< 100 nM
"Cc1ccc(-c2cnc(N3CC[C@@H]4CNC[C@@H]4CC3)nc2-c2ccc(C#N)cc2)cc1 [Example 23, 4-{2-[(3aR,8aS)-decahydropyrro[3,4-d]azepin-6-yl]-5-(4-methylphenyl)pyrimidin-4-yl}benzonitrile]",IC50,full-length human LSD1,< 100 nM
same,IC50,THP-1 (AML) cells,< 100 nM
"Cn1cc2cc(-c3cnc(N4CCCNCC4)nc3-c3ccc(C#N)c(F)c3)ccc2n1 [Example 110, 4-[2-(1,4-diazepan-1-yl)-5-(2-methylindazol-5-yl)pyrimidin-4-yl]-2-fluorobenzonitrile]",IC50,full-length human LSD1,< 100 nM
same,IC50,THP-1 (AML) cells,< 100 nM
Cn1cc(C#Cc2cnc(N3CCC(N)CC3)nc2-c2ccc(C#N)c(F)c2)nn1 [Example 100],IC50,full-length human LSD1,< 100 nM
same,IC50,THP-1 (AML) cells,< 100 nM
"CNc1nc(N2CCCNCC2)nc(-c2ccc(C#N)c(F)c2)c1-c1ccc2nn(C)cc2c1 [Example 162, 4-[2-(1,4-diazepan-1-yl)-5-(2-methyl-2H-indazol-5-yl)-6-(methylamino)pyrimidin-4-yl]-2-fluorobenzonitrile]",IC50,full-length human LSD1,< 100 nM
same,IC50,THP-1 (AML) cells,< 100 nM
"N#Cc1ccc(-n2nc(C(=O)N3CCC[C@@H](N)C3)cc2OCc2ccncc2)cc1 [Example 58, 4-{3-[((3R)-3-aminopiperidyl)carbonyl]-5-(4-pyridylmethoxy)pyrazolyl}benzenecarbonitrile]",IC50,full-length human LSD1,< 100 nM
same,IC50,THP-1 (AML) cells,1000 to 10000 nM
"CNc1nc(N2CCC(N)CC2)nc(-c2ccc(C#N)c(F)c2)c1-c1cnc2c(c1)nnn2C [Example 171, 4-[2-(4-aminopiperidin-1-yl)-5-{3-methyl-3H-[1,2,3]triazolo[4,5-b]pyridin-6-yl}-6-(methylamino)pyrimidin-4-yl]-2-fluorobenzonitrile]",IC50,full-length human LSD1,< 100 nM
same,IC50,THP-1 (AML) cells,< 100 nM
"CNc1nc(N2CCC(N)CC2)nc(-c2ccc(C#N)c(F)c2)c1-c1ccc2nn(C)cc2c1 [Example 160, 4-[2-(4-aminopiperidin-1-yl)-5-(2-methyl-2H-indazol-5-yl)-6-(methylamino)-pyrimidin-4-yl]-2-fluorobenzonitrile]",IC50,full-length human LSD1,< 100 nM
same,IC50,THP-1 (AML) cells,< 100 nM
"Cn1nnc2cc(-c3cnc(N4CCC(N)CC4)nc3-c3ccc(C#N)cc3)ccc21 [Example 72, 4-[2-(4-aminopiperidin-1-yl)-5-(1-methylbenzotriazol-5-yl)pyrimidin-4-yl]benzonitrile]",IC50,full-length human LSD1,< 100 nM
same,IC50,THP-1 (AML) cells,< 100 nM
"Cn1cnc2cc(-c3cnc(N4CCC5(CCNC5)CC4)nc3-c3ccc(C#N)c(F)c3)cnc21 [Example 137, 4-[2-(2,8-diazaspiro[4.5]decan-8-yl)-5-(3-methylimidazo[4,5-b]pyridin-6-yl)pyrimidin-4-yl]-2-fluorobenzonitrile]",IC50,full-length human LSD1,< 100 nM
same,IC50,THP-1 (AML) cells,< 100 nM
"Cn1ncc2cc(-c3cnc(N4CC5CNCC(C5)C4)nc3-c3ccc(C#N)cc3)ccc21 [Example 120, 4-[2-(3,7-diazabicyclo[3.3.1]nonan-3-yl)-5-(1-methylindazol-5-yl)pyrimidin-4-yl]benzonitrile]",IC50,full-length human LSD1,< 100 nM
same,IC50,THP-1 (AML) cells,100 to 1000 nM
"N#Cc1ccc(-c2cc3c(ccn3C[C@H]3CCNC3)nc2-c2ccc(F)cc2)cc1 [Example 5, 4-[5-(4-fluorophenyl)-1-[[(3S)-pyrrolidin-3-yl]methyl]pyrrolo[3,2-b]pyridin-6-yl]benzonitrile]",IC50,full-length human LSD1,< 100 nM
same,IC50,THP-1 (AML) cells,1000 to 10000 nM
